Data: patent publication US6627227B2, “Use of saw palmetto to prevent atherosclerosis” (priority 2000, dated 2003)

Key:
[1] = Retrospective chart review of cardiac events in prostate cancer patients on LHRH inhibitors vs controls; format: in vivo; settings: treated patients vs controls
Protocol: The patients on either Leuprolide or Goserelin were treated with the recommended doses indicated for the treatment of prostatic carcinoma, at either one or three month intervals depending on the preparation used. Leuprolide was dosed at 7.5 mg monthly (single intramuscular injection) or at 22.5 mg at 3 month intervals (single intramuscular injection). Goserelin was dosed at 3.6 mg monthly or at a dose of 10.8 mg at 3 month intervals (subcutaneous injection). The various groups of office patients were evaluated by chart review. In groups 2 and 3 only those on drug for at least one year were considered. Cardiac event is defined either the history of a heart attack or occurrence of coronary artery bypass or angioplasty. In control groups only events occurring in the 3 years prior to the questionnaire are charted.

[2] = Second study: patient questionnaire, cardiac events in patients taking finasteride; format: in vivo; settings: 4 events over 242 patient-years; control 3.5%/yr.
Protocol: Finasteride was being administered at a dosage of a single oral 5 mg tablet a day. This is the same tablet used in treatment of BPH as disclosed in U.S. Pat. No. 5,175,155 and such dosage applies in the present invention. However, use of a 2 mg or 10 mg oral tablet is contemplated. In the second study patients of the practice were given a questionnaire. Various patients had been treated with finasteride for varying lengths of time. Only those on the drug for at least one year were considered. The average time on finasteride was 3 years. The number of cardiac events occurring in the patients taking finasteride was only 4 events over 242 patient-years. (1.6%/yr.) In the control group 26 events occurred in the 3 years prior over 732 patient-years. (3.5%/yr.) The 45% decrease observed in cardiac events is believed to be significant. (90% Cl equal to 1.4% to 3.7%)

Structure (SMILES)	heart attacks compared with controls [1]	cardiac event rate [2]
CC(=O)O.CCNC(=O)[C@@H]1CCCN1C(=O)[C@H](CCCNC(=N)N)NC(=O)[C@H](CC(C)C)NC(=O)[C@@H](CC(C)C)NC(=O)[C@H](Cc1ccc(O)cc1)NC(=O)[C@H](CO)NC(=O)[C@H](Cc1c[nH]c2ccccc12)NC(=O)[C@H](Cc1c[nH]cn1)NC(=O)[C@@H]1CCC(=O)N1 [Lupron, 5-oxo-L-prolyl-L-histidyl-L-tryptophyl-L-seryl-L-tyrosyl-D-leucyl-L-leucyl-L-arginyl-N-ethyl-L-prolinamide acetate salt]	fewer heart attacks than controls	–
CC(C)C[C@H](NC(=O)[C@@H](COC(C)(C)C)NC(=O)[C@H](Cc1ccc(O)cc1)NC(=O)[C@H](CO)NC(=O)[C@H](Cc1c[nH]c2ccccc12)NC(=O)[C@H](Cc1cnc[nH]1)NC(=O)[C@@H]1CCC(=O)N1)C(=O)N[C@@H](CCCNC(=N)N)C(=O)N1CCC[C@H]1C(=O)NNC(N)=O [Zoladex, pyro-Glu-His-Trp-Ser-Tyr-D-Ser(Bu^t)-Leu-Arg-Pro-Azgly-NH2 acetate]	fewer heart attacks than controls	–
CC(C)(C)NC(=O)[C@H]1CC[C@H]2[C@@H]3CC[C@H]4NC(=O)C=C[C@]4(C)[C@H]3CC[C@]12C [finasteride, 4-azaandrost-1-ene-17-carboxamide, N-(1,1-dimethylethyl)-3-oxo-(5a 17B)-]	–	1.6 %/yr.
